Results reported in US5455228A, “Peptidase resistant thrombin receptor peptide ligand” (The Research Foundation of State University of New York, priority 1993, dated 1995).
Numbered stars: 1 amine (or outer) side, 2 acyl side, 3 side chain; on linkers, the order of the positions; unused ones are H or OH. Square brackets hold non-standard residues; d marks the D form. Ends that are not written are not given here. Peptide text beside a SMILES is read from it. ξ: configuration not given here. ξIsoserine = O=C(C(O)CN[*:1])[*:2]

Key:
[1] = target: aminopeptidase M (Homo sapiens, UniProt P15144); settings: Coller et al. 1992; not with thrombin; cited from earlier work
[2] = target: T1, thrombin receptor on platelets (Homo sapiens, UniProt P25116); assay: Dose response of peptide-induced platelet aggregation in platelet-rich plasma; format: cell-based
T1 construct: Citrated platelet-rich plasma (PRP; 307,000 platelets/μl, pH 7.0; 0.45 ml) was stirred in a cuvette at 37° C; endogenous in cells; host or cells: human platelets in citrated platelet-rich plasma
T1 sequence (P25116 22-425): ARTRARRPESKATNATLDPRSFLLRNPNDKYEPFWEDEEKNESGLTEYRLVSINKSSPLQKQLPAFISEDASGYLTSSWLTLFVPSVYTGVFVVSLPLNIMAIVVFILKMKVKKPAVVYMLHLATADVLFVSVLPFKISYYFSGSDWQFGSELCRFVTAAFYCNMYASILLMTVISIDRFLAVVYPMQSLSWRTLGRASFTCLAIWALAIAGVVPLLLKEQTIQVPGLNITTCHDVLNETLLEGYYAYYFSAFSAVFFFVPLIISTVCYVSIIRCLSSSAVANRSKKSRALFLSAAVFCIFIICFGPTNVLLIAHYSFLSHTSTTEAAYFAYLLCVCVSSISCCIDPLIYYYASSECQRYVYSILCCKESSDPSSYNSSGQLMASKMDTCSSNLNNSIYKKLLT
Method: (§1) Platelet Aggregation. Platelet Rich Plasma (hereinafter "PRP") was obtained from human blood anticoagulated with sodium citrate (0.01 volume of 40% trisodium citrate) or acid-citrate-dextrose (hereinafter "ACD") solution A (ACD-A; 8.5 mL of blood: 1.5 mL of ACD-A) by centrifugation at 700 g for 3.5 min. at 22° C. Platelet-poor plasma (hereinafter "PPP") was obtained by centrifuging the PRP at 2000g for 8 min. at 22° C. The pH of the citrated PRP after preparation was about 7.7 whereas the pH of the ACD-A PRP was about 7.0. The pH of the PRP was adjusted, when necessary with 1M NaOH or 1M HCl and maintained at about 7.70. Platelet aggregation was performed in a dual-channel aggregometer (Chronolog, Hayertown, Pa.) using matched stir bars.
Dose Response of Peptide-Induced Aggregation. Citrated platelet-rich plasma (PRP; 307,000 platelets/μl, pH 7.0; 0.45 ml) was stirred in a cuvette at 37° C. and then […] of Ser-Phe-Leu-Leu-Arg-Asn-Pro-Asn-Asp-Lys-Tyr (T-11) amino acids 1 to 11 of SEQ ID NO:1, (D-Ser)-Phe-Leu-Leu-Arg-Asn-Pro-Asn-Asp-Lys-Tyr ((DS)T-11) SEQ ID NO:11, Ser-Phe-Leu-Leu-Arg-Asn amino acids 1 to 6 of SEQ ID NO:1 or (iso-Ser)-Phe-Leu-Leu-Arg-Asn SEQ ID NO:7 peptide was added to achieve the final concentration as follows: Ser-Phe-Leu-Leu-Arg-Asn-Pro-Asn-Asp-Lys-Tyr amino acids 1 to 11 of SEQ ID NO:1 was added to a maximum concentration of 2.9 μM; (D-Ser)-Phe-Leu-Leu-Arg-Asn-Pro-Asn-Asp-Lys-Tyr SEQ IS NO:11 was added to a maximum concentration of 940 μM; Ser-Phe-Leu-Leu-Arg-Asn amino acids 1 to 6 of SEQ ID NO:1 was added to a maximum concentration of 1.7 μM; (iso-Ser)-Phe-Leu-Leu-Arg-Asn SEQ ID NO:7 was added up to a maximum concentration of 4.9 μM.

[3] = target: T2, plasma aminopeptidase M (Homo sapiens, UniProt P15144); assay: Loss of peptide platelet aggregating activity during plasma incubation; format: in vitro ADME; settings: for aggregating activity after plasma incubation: 125 μM peptide; for platelet aggregating activity when incubated in plasma: 2 mM peptide mixed 1:1 with platelet-poor plasma, up to 2 hours
T2 construct: from tissue; host or cells: human citrated platelet-poor plasma
Method: as §1
[…] Aliquots were removed at 15, 30, 45, 60 and 120 minutes and analyzed for both the ability to aggregate platelets and peptide cleavage.

[4] = test system: T3, plasma aminopeptidase M; assay: Peptide digestion during incubation with platelet-poor plasma, HPLC; format: in vitro ADME, human; settings: human; for remaining at 2 h, 1 mM: 120 min; for metabolised at 2 h, 1 mM: incubated with plasma at 37° C., about two hours, read-out: peptide cleavage
T3 construct: from tissue; host or cells: human citrated platelet-poor plasma
Method: (§2) Peptide Digestion Studies. For T-11 amino acids 1 to 11 of SEQ ID NO:1 and (D-Ser)T-11 SEQ ID NO:11 digestions, 0.11 volume of 20 mM peptide in 0.15M NaCl, 0.01 Tris/HCl, pH 7.4, was added to citrated platelet-poor plasma to achieve a final concentration of 2 mM. Samples were incubated for 2 hours at 37° C. and then the plasma proteins were precipitated with 9-10% trichloroacetic acid at 4° C. for at least 30 min. After centrifugation at 12000 g at 22° C. for 3 min., the supernatant was analyzed to determine peptide cleavage by reverse-phase HPLC (C8; Applied Biosystems 300 RP Aquapore; 220×4.6-mm column); elution was with 0.1% trifluoroacetic acid with a 0-60% acetonitrile gradient.
(§3) To determine the amino acid sequence of the digestion products of T-11 amino acids 1 to 11 of SEQ ID NO:1 and (D-Ser)T-11 SEQ ID NO:11 and to assess their ability to aggregate platelets, the peptide (2 mM) was incubated with citrated PPP for 2 hours at 37° C., plasma proteins were precipitated with trichloroacetic acid, and the supernatant after centrifugation was both analyzed and fractionated on the analytical reverse-phase column. Peak fractions were dried in a vacuum centrifuge (Speed-Vac, Savant, Farmingdale, N.Y.) and dissolved in either buffer (0.15M NaCl and 0.01 M Tris/HCl, pH 7.4) for aggregation studies or 0.1% trifluoroacetic acid for amino acid analysis. Quantitative amino acid analysis of the peptides was performed with commercial reagents and equipment (Pico-Tag workstation and C-18 Pico-Tag column; Waters-Millipore, Bedford, Mass.). The amino acid sequence could then be inferred from the amino acid content of each peak.
(§4) For the Ser-Phe-Leu-Leu-Arg-Asn (SFLLRN) amino acids 1 to 6 of SEQ ID NO:1 and (iso-Ser)-Phe-Leu-Leu-Arg-Asn ((iso-S))FLLRN SEQ ID NO:7 studies, 2 mM peptide in buffer (0.15 M NaCl, 0.01 M Tris/HCl, pH 7.4) was mixed with an equal volume of citrated platelet-poor plasma (1:1) and separately with an equal volume of buffer and incubated at 37° C for variable periods of time. Aliquots were removed at 15, 30, 45, 60 and 120 minutes and analyzed for both the ability to aggregate platelets and peptide cleavage.
(§5) For peptide digestion studies for SFLLRN amino acids 1 to 6 of SEQ ID NO:1 and (iso-S)FLLRN SEQ ID NO:7, samples were removed at various times and analyzed for peptide digestion by HPLC after precipitating the plasma proteins with trichloroacetic acid.

[5] = target: T2, plasma aminopeptidase M; assay: as above; format: in vitro ADME
Method: as §2, §3, §4, §5

[6] = target: T2, plasma aminopeptidase M; settings: previously demonstrated, Coller et al. 1992; cited from earlier work
[7] = test system: gel-filtered platelets; settings: Vu et al. 1991; cited from earlier work
[8] = 50% citrated platelet-poor plasma, 1 mM final, 50% platelet-poor plasma, 37° C., read-out: percentage remaining intact
[9] = 1 mM final, 50% platelet-poor plasma, 37° C., 2 hours

T2 sequence (P15144 whole entry): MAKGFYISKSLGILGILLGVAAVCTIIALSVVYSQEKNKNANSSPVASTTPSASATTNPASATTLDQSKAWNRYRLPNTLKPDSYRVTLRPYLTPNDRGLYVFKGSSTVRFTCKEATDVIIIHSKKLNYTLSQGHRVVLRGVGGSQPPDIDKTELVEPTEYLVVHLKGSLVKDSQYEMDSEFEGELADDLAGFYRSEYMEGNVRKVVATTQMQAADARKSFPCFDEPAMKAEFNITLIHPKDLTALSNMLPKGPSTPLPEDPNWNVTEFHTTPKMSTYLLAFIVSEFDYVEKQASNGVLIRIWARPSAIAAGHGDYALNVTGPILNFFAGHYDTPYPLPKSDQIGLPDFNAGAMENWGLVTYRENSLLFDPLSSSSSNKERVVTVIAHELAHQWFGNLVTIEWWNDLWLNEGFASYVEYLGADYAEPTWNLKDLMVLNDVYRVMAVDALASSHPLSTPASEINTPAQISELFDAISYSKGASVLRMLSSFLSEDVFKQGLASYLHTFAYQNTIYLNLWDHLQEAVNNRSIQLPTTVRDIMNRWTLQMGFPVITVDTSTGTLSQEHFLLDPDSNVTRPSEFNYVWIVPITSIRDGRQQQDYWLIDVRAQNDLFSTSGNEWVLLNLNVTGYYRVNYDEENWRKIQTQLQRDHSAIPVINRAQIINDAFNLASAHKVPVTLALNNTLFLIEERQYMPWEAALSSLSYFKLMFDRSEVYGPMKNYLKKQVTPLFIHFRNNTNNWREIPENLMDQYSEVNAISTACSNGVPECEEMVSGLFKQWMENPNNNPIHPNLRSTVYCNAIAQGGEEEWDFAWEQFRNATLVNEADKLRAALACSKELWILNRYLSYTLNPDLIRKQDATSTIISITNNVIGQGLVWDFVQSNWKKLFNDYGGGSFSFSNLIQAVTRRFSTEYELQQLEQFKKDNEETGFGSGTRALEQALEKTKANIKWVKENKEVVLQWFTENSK
aminopeptidase M, sequence (P15144 whole entry, species assumed): as the sequence (P15144 whole entry) above

Compound: CC(C)C[C@@H](N)[C@H](O)C(=O)N[C@H](C(=O)N[C@H](C(=O)N[C@@H](CC(=O)O)C(=O)O)C(C)C)C(C)C [amastatin]
- effect on aggregation induced by T-11 [1]: enhanced aggregation induced by T-11

Compound: CC(C)C[C@H](NC(=O)[C@H](Cc1ccccc1)NC(=O)C(O)CN)C(=O)N[C@@H](CC(C)C)C(=O)N[C@@H](CCCNC(=N)N)C(=O)N[C@@H](CC(N)=O)C(N)=O (stereo partly drawn) [(iso-S)FLLRN, (iso-Ser)-Phe-Leu-Leu-Arg-Asn-NH2] (ξIsoserine-FLLRN-NH2)
- platelet activating activity relative to SFLLRN ([2]; citrated PRP): 15-20%
- platelet aggregating activity (in words) ([2]; citrated PRP): substantially active
- EC50 ([2]; citrated PRP, 37° C., read-out: concentration to achieve half-maximal aggregation): ~4 µM
- slope of platelet disaggregation phase ([2]; peptide at 3.7 μM, dose giving equivalent peak aggregation response): 4 U/min
- aggregating activity after plasma incubation ([3]; 45 min): retained its full aggregating activity
- aggregating activity after plasma incubation ([3]; 1 hour): some decrease in activity
- aggregating activity after plasma incubation ([3]; 2 hours): some aggregating activity remained
- platelet aggregating activity when incubated in plasma ([3]; 37° C.): lost little if any activity
- peptide activity after incubation with buffer rather than plasma ([3]; buffer, 37° C., 2 hours): no decrease in peptide activity
- platelet aggregating activity after plasma incubation ([3]; plasma at 37° C., at least two hours): remained unchanged
- remaining at 2 h, 1 mM [4, 8]: ~83%
- metabolised at 2 h, 1 mM ([4]; citrated platelet-poor plasma): ~17%
- extent of digestion (in words) [5, 9]: minimal digestion
- peptide remaining intact (in words) ([5]; 1 mM final, 50% platelet-poor plasma, 37° C., first 60 min): Virtually all
- peptide cleavage (in words) ([5]; incubated with plasma at 37° C., 45 minutes): did not undergo identifiable cleavage

Compound: CC(C)C[C@H](NC(=O)[C@H](Cc1ccccc1)NC(=O)[C@H](N)CO)C(=O)N[C@@H](CC(C)C)C(=O)N[C@@H](CCCNC(=N)N)C(=O)N[C@@H](CC(N)=O)C(=O)N1CCC[C@H]1C(=O)N[C@@H](CC(N)=O)C(=O)N[C@@H](CC(=O)O)C(=O)N[C@@H](CCCCN)C(=O)N[C@@H](Cc1ccc(O)cc1)C(N)=O [(DS)T-11, (D-Ser)-Phe-Leu-Leu-Arg-Asn-Pro-Asn-Asp-Lys-Tyr] (H-[dS]FLLRNPNDKY-NH2)
- aggregating activity retained after plasma incubation ([3]; incubated with plasma for 1 hour): retained more than half its aggregating activity
- peptide cleavage (in words) ([5]; 2 mM peptide, platelet-poor plasma, 37° C., 2 hours): did not undergo any identifiable cleavage

Compound: SFLLRNPNDKY-NH2 [T-11, Ser-Phe-Leu-Leu-Arg-Asn-Pro-Asn-Asp-Lys-Tyr]
- aggregating activity when incubated in plasma [6]: lost aggregating activity
- time to loss of all aggregating activity ([3]; incubated with plasma): ≤ 1 h
- platelet aggregating ability after preincubation in plasma ([3]; plasma at 37° C.): progressive loss of platelet aggregating ability
- incubation time sufficient to produce significant inhibition of aggregating ability ([3]; preincubation in plasma at 37° C.): ≤ 10 min
- remaining at 2 h, 2 mM ([4]; citrated platelet-poor plasma, 2 mM peptide, platelet-poor plasma, 37° C., 2 hours, read-out: peptide remaining intact): 34%

Compound: CC(C)C[C@H](NC(=O)[C@H](CC(C)C)NC(=O)[C@H](Cc1ccccc1)NC(=O)[C@@H](N)CO)C(=O)N[C@@H](CCCN=C(N)N)C(=O)N[C@@H](CC(N)=O)C(N)=O [SFLLRN]
- time to loss of all aggregating activity ([3]; 125 μM peptide incubated with plasma): ≤ 0.3 h
- platelet aggregating activity when incubated in plasma ([3]; 37° C.): rapidly lost platelet aggregating activity
- time to decrease of platelet aggregating activity ([3]; incubated with plasma at 37° C.): ≤ 15 min
- platelet aggregating activity after plasma incubation ([3]; plasma at 37° C., 60 minutes): nearly lost
- metabolised at 0.25 h, 1 mM ([4]; 50% citrated platelet-poor plasma, 1 mM final, 50% platelet-poor plasma, 37° C., 15 min, read-out: peptide no longer intact): 35%
- remaining at 0.5 h, 1 mM ([4]; 50% citrated platelet-poor plasma, 1 mM final, 50% platelet-poor plasma, 37° C., 30 min, read-out: percentage remaining intact): 49%
- remaining at 0.75 h, 1 mM ([4]; 50% citrated platelet-poor plasma, 1 mM final, 50% platelet-poor plasma, 37° C., 45 min, read-out: percentage remaining intact): 23%
- remaining at 1 h, 1 mM ([4]; 50% citrated platelet-poor plasma, 1 mM final, 50% platelet-poor plasma, 37° C., 60 min, read-out: percentage remaining intact): 16%
- remaining at 2 h, 1 mM [4, 8]: 4%
- metabolised at 2 h, 1 mM ([4]; citrated platelet-poor plasma): 96%
- time to detectable cleavage ([5]; 1 mM final, 50% platelet-poor plasma, 37° C.): ≤ 10 min
- extent of digestion (in words) [5, 9]: nearly complete digestion

Compound: SFLLRNPNDKYEPF [T-14, 14 amino acid peptide mimicking the new amino terminus of the cleaved thrombin receptor]
- aggregation of gel-filtered platelets [7]: able to aggregate gel-filtered platelets directly
- aggregating activity when incubated in plasma [6]: lost aggregating activity
